In test [1] the test system is Human ESCs (H9). Nature of the test: Mesoderm formation during cardiac differentiation of hESCs (brachyury (T)+ cells). It counts as cell-based. The text has this:
(§1) Human ESCs (H9) were differentiated to cardiac lineage by treatment with Activin A, BMP4 and bFGF (ABF, control group) for two days (day 1-2) Mesoderm formation was identified by brachyury (T)+ cells, and the ensuing pan-cardiac myocyte lineage was marked by cTnT+ cells. In control, this process was highly efficient, reaching 75% and 82%, respectively. […] In contrast, late (day 6-9) activation of RA (Late-RA) led to >90% cTnT+ population. […] Furthermore, the Late-RA cardiomyocytes expressed higher transcript and protein levels of the first heart field (FHF) markers, NKX2.5, TBX5 and HCN4.

Test [2] concerns Human ESCs (H9). Nature of the test: Pan-cardiac myocyte lineage formation from hESCs (cTnT+ cells). It counts as cell-based.
Excerpt: as §1

For test [3], the system named is Human ESCs (H9). Nature of the test: Chamber and heart field marker expression in hESC-derived cardiomyocytes. The format is cell-based.
Excerpt: IRX4 and HRT2 are ventricular marker. CoupTFII is an atrial marker. NKX2.5, TBX5, HCN4 are markers of the first heart field, which becomes the left ventricular and atrial cardiac myocytes.
Is11, Mef2c, Fgf8, and Fgf10 are markers of the second heart field, which become right ventricular cardiac myocytes.
as §1
Reported are specific and robust derivation of the left ventricular-like cells by activating RA signaling during the late stage of hESC differentiation.

The test system of a further test is hESCs. Nature of the test: Differentiation protocols of hESCs to cardio-like cell subtypes (AFB, AFB+RA, Ri+AFB+RA). It counts as cell-based, human. As for the experimental part:
To create the cardio-like cells from hESCs, at the early stage (day 0-3), hESCs were treated with ActivinA, bFGF and BMP4 to induce mesoderm and cardiac mesoderm cells generation. […] Wnt inhibitor promoted cardiac progenitor cells into cardio-like cells during day 5-11.
To create atrial-like cells from hESCs, at the early stage (day 0-3), hESCs were treated with ActivinA, bFGF and BMP4 to induce mesoderm and cardiac mesoderm cells generation. […] Wnt inhibitor promoted differentiation of cardiac progenitor cells into cardio-like cells during day 5-11.
To create first heart field (FHF) derived left ventricular-like cells from hESCs, at the early stage (day 0-3), hESCs were treated with ActivinA, bFGF, BMP4 and additional short time (day 0-1) treatment of BMS4.93(Ri) to induce mesoderm and cardiac mesoderm cells generation. […] Wnt inhibitor promoted cardiac progenitor cells into cardiomyocytes during day 5-11.

Setting [4] is: early inhibition of RA signaling.
Setting [5] is: Late-RA cardiomyocytes compared to control.

Turning to `CC1(C)CC=C(C#Cc2ccccc2)c2cc(/C=C/c3ccc(C(=O)O)cc3)ccc21` [BMS-189493, (E)-4-(2-(5,5-dimethyl-8-(phenylethynyl)-5,6-dihydronaphthalen-2-yl)vinyl)benzoic acid], in the test on Human ESCs (H9) [1] (setting [4]), the Mesoderm induction entry was “increased mesoderm induction”. Also, the “Mesodermal cells that failed to become cardiac myocytes” value with Human ESCs (H9) [2] (setting [4]) was found to be 86%.
Consider `CC(C=CC1=C(C)CCCC1(C)C)=CC=CC(C)=CC(=O)O` [RA, 3,7-dimethyl-9-(2,6,6-trimethylcyclohexen-1-yl)nona-2,4,6,8-tetraenoic acid], for which the “Generation of mesoderm lineage” value in the test on Human ESCs (H9) [1] (early activation of RA) is “failed to generate mesoderm lineage”. Besides, the “cTnT+ population” value with Human ESCs (H9) [2] (late (day 6-9) activation of RA (Late-RA)) is on record as above 90%. In the test on Human ESCs (H9) [3] (Late-RA cardiomyocytes), the “First heart field marker HCN4 transcript and protein levels” value was “higher”; the “First heart field marker NKX2.5 transcript and protein levels” value is on record as “higher”; the “First heart field marker TBX5 transcript and protein levels” value was “higher”. Besides, in the test with Human ESCs (H9) [3] (setting [5]), the “Atrial marker CoupTFII expression” value was “down-regulated”, the “Second heart field marker FGF8 expression” value was “downregulated”, the “Second heart field marker FGF10 expression” value is reported as “downregulated” and the “Second heart field marker ISL1 expression” value is reported as “downregulated”. Moreover, in the test with Human ESCs (H9) [3] (setting [5]), the “Ventricular marker HRT2 expression” value is “up-regulated” and the “Ventricular marker IRX4 expression” value is “up-regulated”. In addition, the Cell subtype specified result with hESCs (AFB+RA protocol, RA during day 5-8, no early RA inhibitor) is listed as “specified atria-like subtypes”. Also, the Cell subtype specified entry in the test on hESCs (Ri+AFB+RA protocol, RA during day 5-8 after Ri day 0-1) is “specified first heart field (FHF) derived left ventricular-like cell subtypes”.

B1: Noggin: secreted protein that binds and inactivates TGF-beta superfamily signaling proteins (protein, UniProt Q13253 28-232, looked up)
Noggin: QHYLHIRPAPSDNLPLVDLIEHPDPIFDPKEKDLNETLLRSLLGGHYDPGFMATSPPEDRPGGGGGAAGGAEDLAELDQLLRQRPSGAMPSEIKGLEFSEGLAQGKKQRLSKKLRRKLQMWLWSQTFCPVLYAWNDLGSRFWPRYVKVGSCFSKRSCSVPEGMVCKPSKSVHLTVLRWRCQRRGGQRCGWIPIQYPIISECKCSC
B1: in the test on hESCs (Noggin treatment during day 3-5), the “Effect on cardiac lineage cells” value is listed as “expanded more cardiac lineage cells”.
